The compounds below were run on α-glucosidase (the present enzyme) from Bacillus sp. KS-108a (FERM BP-5337) (assay: Km value by Lineweaver-Burk plotting). Conditions: pH 7.0, 37° C., read-out: Km (PNPG as substrate).
Assay type: biochemical
Experimental: The measurement of the titer of the present enzyme was carried out in the following manner. The amount of the enzyme causing 1 μ mol paranitrophenol per minute to be released from PNPG was assumed as 1 U of the enzyme. (Preparation of a substrate solution, a buffer, a reaction terminating solution, and an enzyme diluent)
(§1) First, 0.25 ml of Solution 1 and 0.5 ml of Solution 2 were mixed and pre-incubated at 37° C. for 5 minutes, and then the solution was mixed with 0.25 ml enzyme solution (about 0.005 to 0.03 U/ml) and reacted accurately for 15 minutes at 37° C.
(§2) Then, the reaction was stopped by adding 1 ml of Solution 3 to the reaction solution and the paranitrophenol thus formed was colored. This sample was measured for absorbance at 400 nm in a spectrophotometer (U-2000A, Hitachi Ltd.).

| SMILES | Km [µM] |
| --- | --- |
| O=[N+]([O-])c1ccc(O[C@H]2O[C@H](CO)[C@@H](O)[C@H](O)[C@H]2O)cc1 [PNPG, paranitrophenyl-α-D-glucopyranoside] | 55 |

These compounds were tested on α-glucosidase (the present enzyme) from Bacillus sp. KS-108a (FERM BP-5337) (assay: not given). Conditions: 0.01 ml of 22 mM inhibitor added to 0.1 ml enzyme in 100 mM HEPES-NaOH pH 7.0 with 0.2% BSA, 25° C., 1 hour; then diluted 100-fold, activity on PNPG; control = 100.
Assay type: biochemical
Experimental: as §1, §2
The effect of treatment with various inhibitors was evaluated in the following manner.
0.1 ml of 0.0667 mg/ml of the present enzyme in 100 mM HEPES-NaOH buffer, pH 7.0 containing 0.2% BSA was added to 0.01 ml of 22 mM inhibitor (1.1% in the case of a surfactant as inhibitor) and incubated at 25° C. for 1 hour. Then, the sample was diluted 100-fold with 10 mM potassium phosphate buffer (pH 7.0) containing 0.2% BSA, and the remaining activity was determined in the same manner as above in titer measurement.

| SMILES | remaining activity (%) |
| --- | --- |
| O=C(O)c1cc[c]([Hg][Cl])cc1 [PCMB, p-chloromercuribenzoic acid] | 97.7 |
| [N-]=[N+]=[N-] [sodium azide] | 105.0 |
| O[C@H](CS)[C@H](O)CS (racemic) [dithiothreitol] | 105.4 |
| O=C(O)c1ccccc1[N+](=O)[O-] [2-nitrobenzoic acid] | 102.7 |
| CCN1C(=O)C=CC1=O [N-ethylmaleimide] | 107.5 |
| c1cnc2c(c1)ccc1cccnc12 [o-phenanthroline] | 99.4 |
| OCCS [2-mercaptoethanol] | 99.6 |

Same assay, conditions: 22 mM inhibitor stock, 25° C., 1 hour

| SMILES | effect of treatment with inhibitor on the enzyme (in words) |
| --- | --- |
| O=C(O)c1cc[c]([Hg][Cl])cc1 [PCMB, p-chloromercuribenzoic acid] | not affected |
| CCN1C(=O)C=CC1=O [N-ethylmaleimide] | not affected |

Same assay, conditions: pH 7

| SMILES | remaining activity (%) |
| --- | --- |
| N[C@@H](CCC(=O)N[C@@H](CS)C(=O)NCC(=O)O)C(=O)O [glutathione] | 102.5 |
| O=C(O)CN(CCN(CC(=O)O)CC(=O)O)CC(=O)O [EDTA-2Na] | 106.4 |
| O=C(O)CI [monoiodoacetic acid] | 98.5 |

Source: patent US5827720A, “α-glucosidase, and a process for producing the same” (priority 1995, dated 1998)
